Where “and” joins values, the source holds several entries; their conditions need not be identical. Equal values may be shown once.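 Following 48 hours of exposure in 96-well plates, responses at five concentrations were used to interpolate endpoints linearly. Abbreviation: GI50, concentration required for 50% inhibition of growth. TGI marks complete inhibition of growth.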 A value given as a limit tells only on which side of the number the result lay.

What all share (assay): DTP human tumour cell line panel, 48 h
In assay [1] the test system is NCI-H522 lung.
Assay [2] relates to HT29 colon.
For assay [3], the system named is RPMI-8226 leukemia.
Assay [4] relates to K-562 leukemia.
The subject of assay [5] is 786-0 renal.
In assay [6] the test system is T-47D breast.
Assay [7] relates to HOP-62 NSCLC.
In assay [8] the test system is BT-549 breast.
In assay [9] the test system is HCT-15 colon.
For assay [10], the system named is MDA-MB-231 breast.

What is called GI50 is the concentration giving 50% growth inhibition. A word on the TGI: it is the concentration giving total growth inhibition. For `Cc1cc(Nc2cc(N)ncn2)c(=O)n2c1C(=O)NC21CCCCC1`, the GI50 in assay [1] was more than 100 µM; in assay [2], more than 100 µM; in [3], more than 100 µM; in [4], more than 100 µM; in assay [5], 22.9 µM; in assay [6], more than 100 µM. Also, the GI50 in [7] was 31.2 µM; in assay [8], 48.4 µM; in assay [9], more than 100 µM; in [10] it was 82 µM. For the same compound, the total growth inhibition concentration (TGI) in assay [1], in [2], in [3], in assay [4], in assay [5] and in [6] was more than 100 µM throughout. The concentration for total growth inhibition (TGI) in [7], in assay [8], in assay [9] and in assay [10] was more than 100 µM each time.

For the compound `CC#Cc1nc(Nc2cc(C)[nH]n2)c2ccccc2n1`, the GI50 in assay [1] was 6.24 µM; in [2], 3.71 µM; in assay [3], 6.95 µM and 3.32 µM; in assay [4] it was 11.7 µM; in assay [5], 5.86 µM; in [6] it was 10.8 µM. Also, the GI50 in [7] was 12.4 µM; in assay [8] it was 4.9 µM; in [9] it was 2.75 µM; in assay [10], 2.85 µM. The TGI in [1] is 22 µM; in assay [2], 16.9 µM; in assay [3], 22.2 µM; in [4], more than 100 µM; in [5], 29 µM; in assay [6], 56.5 µM. For the same compound, the TGI in [7] was found to be 39.7 µM; in [8], 23.2 µM; in [9] it was 12.8 µM; in [10], 9.34 µM.

As to `COc1ccc(Cn2cc3c(c2-c2cc(OC)c(OC)c(OC)c2)CCc2cnoc2-3)cc1`, the GI50 in assay [1] was 0.107 µM; in assay [2], 0.335 µM; in assay [3], 0.356 µM; in [4], 0.111 µM; in assay [5], 0.575 µM; in [6], 0.82 µM. Besides, the GI50 in assay [7] was 0.446 µM; in assay [8] it was 1.62 µM; in [9], 0.354 µM; in assay [10], 0.735 µM. Also, the concentration for total growth inhibition (TGI) was 1.17 µM in [1]; 10.3 µM in [2]; more than 32.3 µM in assay [4]; more than 100 µM in [5]; more than 100 µM in assay [6]; more than 100 µM in assay [7]. Further, the TGI in [8], in assay [9] and in assay [10] was more than 100 µM in each case.

On to `C=C1C(=O)O[C@H]2[C@H]1CC/C(COC(=O)NCc1ccc(Cn3c(=O)sn(-c4ccccc4)c3=O)cc1)=C\CC[C@@]1(C)O[C@@H]21`, for which the GI50 in [1] is 1.74 µM; in assay [2], 2.15 µM; in assay [3], 2.03 µM; in assay [4], 1.8 µM; in assay [5], 1.81 µM; in [6], 1.98 µM. Further, the GI50 in [7] is 12.4 µM; in assay [8] it was 2.14 µM; in assay [9] it was 1.94 µM; in assay [10], 1.71 µM. Further, the concentration for total growth inhibition (TGI) in [1] is 3.48 µM; in assay [2], 4.14 µM; in [3] it was 6.26 µM; in [4], more than 100 µM; in assay [5] it was 3.37 µM; in assay [6] it was 4.66 µM. Also, the TGI came out at 26.3 µM in [7], 5 µM in assay [8], 3.88 µM in assay [9] and 3.52 µM in [10].

As to `O=[N+]([O-])c1cccc2nccc(NCCCO)c12`, the total growth inhibition concentration (TGI) in assay [1] worked out at 20 µM; in assay [2], 74.1 µM; in assay [3], 46.6 µM; in [4] it was 49.3 µM; in assay [5], 37 µM; in assay [6] it was 79.7 µM. Moreover, the total growth inhibition concentration (TGI) in assay [7] is 35.4 µM; in [8], 21.6 µM; in [9] it was 21.2 µM; in [10] it was 41.4 µM.

As to `COc1cc(NC(=O)C2=C(N3CCOCC3)/C(=C/c3ccc(Cl)cc3)CC2)cc(OC)c1OC`, the GI50 was 17.2 µM in assay [1]; more than 100 µM in assay [2]; 2.97 µM in assay [3]; more than 100 µM in [4]; 10.4 µM in [5]; more than 100 µM in assay [6]. For the same compound, the GI50 in assay [7] is 4.66 µM; in assay [8], 25.5 µM; in [9] it was more than 100 µM; in assay [10], 26.5 µM. Moreover, the concentration for total growth inhibition (TGI) in assay [1] is more than 100 µM; in [2], more than 100 µM; in assay [3], more than 100 µM; in [4], more than 100 µM; in assay [5] it was 33.1 µM; in assay [6], more than 100 µM. Besides, the TGI was 21.2 µM in assay [7], more than 100 µM in assay [8], more than 100 µM in [9] and more than 100 µM in assay [10].

Take `Oc1c(CN2CCN(c3ccccc3)CC2)cc(Br)c2cccnc12`: the TGI in assay [1] was 36.8 µM; in [2], more than 95.8 µM; in assay [3] it was more than 40.4 µM; in [4], more than 40.8 µM; in assay [5], 14.5 µM; in assay [6], more than 47.3 µM. The total growth inhibition concentration (TGI) in assay [7] is 15.2 µM; in assay [8], more than 100 µM; in assay [9] it was more than 100 µM; in [10], 15.7 µM.

On to `C/C(=N\NC(=S)N(C)C)c1ccccn1`, for which the TGI in assay [1] was 1.98 µM; in assay [2] it was 15.8 µM; in assay [3] it was 31.9 µM; in [4], more than 41.3 µM; in assay [5], 11.3 µM; in [6] it was 11.5 µM. Moreover, the total growth inhibition concentration (TGI) in assay [7] stood at 12.4 µM; in assay [8] it was 9.59 µM; in assay [9], 16.6 µM; in [10] it was 17.6 µM. Besides, the concentration for 50% growth inhibition (GI50) was 0.000846 µM in [2]; 0.000878 µM in assay [3]; 0.000104 µM in assay [4]; 0.0154 µM in assay [5]; 0.0203 µM in assay [7]; 0.00191 µM in assay [9]. Moreover, the GI50 in assay [10] was 0.291 µM.
